Measurements as given in patent publication US7157250B2, “Glutamic acid receptor and utilization thereof” (Ajinomoto Co., Inc., priority 2004, dated 2007).

Key:
[1] = system: abdominal cavity branch of vagus nerve; assay: Afferent activity of the abdominal cavity branch of vagus nerve after intraduodenal administration; format: in vivo, rat; conditions: 150 mM administered in the duodenum; urethane-anesthetized Wistar rats starved for 18 hours
Protocol: After starved for 18 hours, rats (Wistar strain, male, 8 to 10 week age: Japan Charles River) were laparotomized under anesthesis with urethane (1 g/kg, i.p.) and about 5 mm of the abdominal cavity branch of vagus nerve was peeled off under stereoscopic microscope. After the cutting of vagus nerve fasciculus, the vagus nerve fasciculus was placed on a small operation stage (8×6 mm) and fat and connective tissue surrounding the vagus nerve fasciculus were carefully peeled off. The terminal fiber on the organ side was placed on a platinum-made bipolar electrode and insulated from the surrounding tissue with liquid paraffin/vaseline (1:1) mixed solution. […]
The neural activity potential was amplified 10,000 folds by a micro potential amplifier (DAM-80 manufactured by WPI) and subjected to A/D conversion (Powerlab 4sp, manufactured by ADI Instruments) after noise was decreased by a Bessel filter (4-pole, […]). […] Simultaneously, while monitoring the amplified signals by an oscilloscope, a noise component is separated from a neural signal component by a window discriminator (DSE-435, manufactured by DiaMedical Corporation), integrated for 5 seconds by a Spike Counter (DSE-335P, manufactured by Nihon Kohden Corporation) and recorded by a chart recorder (WT-465G, manufactured by Nihon Kohden Corporation). […]

mGluR4 variant = target: T1, mGluR4 variant (Rattus norvegicus, UniProt P31423); assay: Measurement of function of mGluR4 variant gene by cAMP measurement in variant expressing CHO-K1 cells; format: cell-based; conditions: 1 mM; for amount of cAMP: in presence of IBMX 100 μM and forskolin 10 μM, n=3
T1 construct: A full-length cDNA of a novel mGluR4 variant was amplified again by a RT-PCR method; V5-His (only in the cloning vector's name); expressed in transfected cells
T1 sequence (P31423 with tags, fused parts or gaps): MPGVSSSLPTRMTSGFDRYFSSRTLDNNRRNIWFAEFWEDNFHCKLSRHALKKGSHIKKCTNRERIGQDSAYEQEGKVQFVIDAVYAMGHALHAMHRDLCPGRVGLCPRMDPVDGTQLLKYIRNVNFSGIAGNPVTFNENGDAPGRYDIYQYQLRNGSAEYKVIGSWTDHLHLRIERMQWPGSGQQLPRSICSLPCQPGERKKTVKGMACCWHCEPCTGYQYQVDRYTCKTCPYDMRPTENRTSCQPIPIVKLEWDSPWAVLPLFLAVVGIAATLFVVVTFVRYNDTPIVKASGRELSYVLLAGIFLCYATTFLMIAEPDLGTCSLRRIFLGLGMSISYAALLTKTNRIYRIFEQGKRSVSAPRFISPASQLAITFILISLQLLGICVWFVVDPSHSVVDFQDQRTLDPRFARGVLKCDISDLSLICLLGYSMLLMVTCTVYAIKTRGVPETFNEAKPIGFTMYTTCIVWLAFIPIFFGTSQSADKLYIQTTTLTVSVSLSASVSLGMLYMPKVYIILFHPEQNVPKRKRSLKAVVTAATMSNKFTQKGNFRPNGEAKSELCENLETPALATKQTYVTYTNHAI
Protocol: The prepared vector (pcDNA3.1E) was introduced in CHO-K1 cell (Dainippon Pharmaceutical Co., Ltd.) by using polyFect reagent (Qiagen). After 48 hours, neomycin (600 μg/ml) was added to a culture medium (Modified Eagle Medium (αMEM) containing 10% fetal bovine serum, 100 U/ml penicillin; Nacalai Tesque) and cultivation was continued for 2 to 3 weeks to perform screening of gene-introduced cells.
The variant expressing cells obtained as described above were dispensed to 2.5×10^5 cells/well on a plate (24-well) and cultivated for 20 hours and then used for the measurement of the function of cAMP. Each plate was washed well with Dulbeco's phosphate buffer and incubated for 20 minutes. Thereafter, stimulation was performed with each drug for 10 minutes at 37° C. After the stimulation, the cells were at once treated with ice-cooled 2.5% perchloric acid (PCA) for 30 minutes, neutralized with KOH, and centrifuged to obtain a supernatant (12,000 rpm×10 min, 4° C.). The cAMP content of the supernatant was determined according to a conventional enzyme immunoassay (ELISA) by using a cAMP assay kit (Amersham).

| SMILES | afferent activity of the abdominal cavity branch of vagus nerve [1] | amount of cAMP (mGluR4 variant) | decrease of the amount of cAMP accumulated in the mGluR4 variant expressing cell (mGluR4 variant; versus sodium chloride (1 mM) added group, IBMX 100 μM and forskolin 10 μM present) |
| --- | --- | --- | --- |
| N[C@@H](CCC(=O)[O-])C(=O)[O-].[Na+].[Na+] [MSG, sodium L-glutamate] | increased |  |  |
| N[C@@H](CCC(=O)O)C(=O)O [glutamic acid] |  | 1,235 fmole | about 19% |
| [Cl-].[Na+] [sodium chloride] |  | 1,519 fmole |  |
